Reference: ChEMBL document CHEMBL1201862, “PubChem BioAssay data set” (2004)
The source made the active and inactive calls.

How the values were obtained:
[1] = tested on: Escherichia coli; assay: microbe, parasite or virus in culture
[2] = tested on: BJ; assay: cells; type: functional, cell-based; conditions: Homo sapiens
[3] = tested on: BJ; assay: cytotoxicity toward BJ-TERT fibroblasts, dose response, cell-based, RAS-independent, luminescence (AID 1933); type: functional; conditions: Homo sapiens
[4] = cytotoxicity in HEK-293T cells, dose response, cytotoxicity control for TCR NF-kB inhibitor project, luminescence, T-cell screen hits (AID 489026); type: functional, cell-based;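 also: cells exposed to compound about 14 hours before the viability readout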
[5] = cytotoxicity toward DRD oncogenic fibroblasts, dose response, cell-based, non-viral oncogenic, luminescence (AID 1934); type: functional; conditions: Homo sapiens
[6] = target: Cytochrome P450 3A4 (Homo sapiens, UniProt P08684); conditions: Potency;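 also: confirmatory qHTS run detecting inhibitors and substrates of CYP3A4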
Chain of Cytochrome P450 3A4 (P08684 whole entry): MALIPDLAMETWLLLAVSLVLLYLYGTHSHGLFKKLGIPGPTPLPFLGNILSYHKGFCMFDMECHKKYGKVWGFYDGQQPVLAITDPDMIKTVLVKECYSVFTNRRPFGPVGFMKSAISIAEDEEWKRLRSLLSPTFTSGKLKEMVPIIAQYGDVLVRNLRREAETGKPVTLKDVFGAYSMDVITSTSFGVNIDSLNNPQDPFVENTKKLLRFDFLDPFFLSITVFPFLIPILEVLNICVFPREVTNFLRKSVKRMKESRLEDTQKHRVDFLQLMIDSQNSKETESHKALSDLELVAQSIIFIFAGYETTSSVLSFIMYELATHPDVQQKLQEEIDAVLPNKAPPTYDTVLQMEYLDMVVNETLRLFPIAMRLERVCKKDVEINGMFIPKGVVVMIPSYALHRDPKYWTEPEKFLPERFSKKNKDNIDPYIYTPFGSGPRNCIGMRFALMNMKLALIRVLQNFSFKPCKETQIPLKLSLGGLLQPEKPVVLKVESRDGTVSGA

[7] = cytotoxicity in HEK-293T cells, dose response, cytotoxicity control for BCR NF-kB inhibitor project, luminescence, B-cell screen hits (AID 489021); type: functional, cell-based;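 also: HEK-293T cells carrying an NF-kB luciferase reporter; cells exposed to compound for about 14 hours before viability readout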
[8] = target: T1, Coagulation factor XII (Homo sapiens, UniProt P00748); type: functional;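 also: activated factor XIIa alpha cleaving a fluorogenic AMC peptide substrate; inhibitor potency from loss of enzyme activity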
T1 sequence (P00748 whole entry): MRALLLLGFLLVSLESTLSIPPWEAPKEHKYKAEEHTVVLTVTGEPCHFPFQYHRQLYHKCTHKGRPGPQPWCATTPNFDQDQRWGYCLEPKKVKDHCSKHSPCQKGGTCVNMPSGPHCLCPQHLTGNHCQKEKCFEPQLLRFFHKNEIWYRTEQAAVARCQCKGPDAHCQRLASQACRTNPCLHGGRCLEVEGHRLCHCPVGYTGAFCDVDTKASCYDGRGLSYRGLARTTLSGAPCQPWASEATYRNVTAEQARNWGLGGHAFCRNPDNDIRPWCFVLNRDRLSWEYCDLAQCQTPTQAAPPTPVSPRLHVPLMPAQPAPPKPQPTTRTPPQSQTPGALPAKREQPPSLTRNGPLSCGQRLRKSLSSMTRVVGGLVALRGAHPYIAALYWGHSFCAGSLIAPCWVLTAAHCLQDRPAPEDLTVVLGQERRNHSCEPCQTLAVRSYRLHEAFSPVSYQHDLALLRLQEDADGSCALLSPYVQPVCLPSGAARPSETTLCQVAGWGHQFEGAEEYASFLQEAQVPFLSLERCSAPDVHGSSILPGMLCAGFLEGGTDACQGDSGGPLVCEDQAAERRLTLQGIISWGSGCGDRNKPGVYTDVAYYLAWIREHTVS

[9] = target: T2, Estrogen receptor beta (Homo sapiens, UniProt Q92731); assay: ERβ–SRC-3 coactivator interaction inhibitors, confirmation, orthogonal assay, biochemical, ELISA, streptavidin-HRP readout (AID 1060)
T2 sequence (Q92731 whole entry): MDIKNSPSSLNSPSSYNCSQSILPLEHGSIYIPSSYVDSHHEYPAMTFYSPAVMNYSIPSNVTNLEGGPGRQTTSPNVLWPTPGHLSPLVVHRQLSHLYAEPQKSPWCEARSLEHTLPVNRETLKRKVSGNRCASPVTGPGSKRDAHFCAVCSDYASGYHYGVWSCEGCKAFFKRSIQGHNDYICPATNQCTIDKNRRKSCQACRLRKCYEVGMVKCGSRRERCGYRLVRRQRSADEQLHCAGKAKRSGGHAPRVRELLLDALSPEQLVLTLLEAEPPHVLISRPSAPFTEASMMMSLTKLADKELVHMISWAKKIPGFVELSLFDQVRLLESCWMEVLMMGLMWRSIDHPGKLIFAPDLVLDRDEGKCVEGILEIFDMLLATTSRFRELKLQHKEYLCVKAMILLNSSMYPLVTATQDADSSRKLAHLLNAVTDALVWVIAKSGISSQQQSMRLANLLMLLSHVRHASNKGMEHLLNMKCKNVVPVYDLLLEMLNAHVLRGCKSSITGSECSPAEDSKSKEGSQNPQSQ

[10] = target: T2, Estrogen receptor beta
[11] = target: T3, Zinc finger protein mex-5 (Caenorhabditis elegans, UniProt Q9XUB2); assay: MEX-5/TCR-2 RNA interaction inhibitors, dose response, biochemical, C. elegans, fluorescence polarization (AID 1960)
T3 sequence (Q9XUB2 whole entry): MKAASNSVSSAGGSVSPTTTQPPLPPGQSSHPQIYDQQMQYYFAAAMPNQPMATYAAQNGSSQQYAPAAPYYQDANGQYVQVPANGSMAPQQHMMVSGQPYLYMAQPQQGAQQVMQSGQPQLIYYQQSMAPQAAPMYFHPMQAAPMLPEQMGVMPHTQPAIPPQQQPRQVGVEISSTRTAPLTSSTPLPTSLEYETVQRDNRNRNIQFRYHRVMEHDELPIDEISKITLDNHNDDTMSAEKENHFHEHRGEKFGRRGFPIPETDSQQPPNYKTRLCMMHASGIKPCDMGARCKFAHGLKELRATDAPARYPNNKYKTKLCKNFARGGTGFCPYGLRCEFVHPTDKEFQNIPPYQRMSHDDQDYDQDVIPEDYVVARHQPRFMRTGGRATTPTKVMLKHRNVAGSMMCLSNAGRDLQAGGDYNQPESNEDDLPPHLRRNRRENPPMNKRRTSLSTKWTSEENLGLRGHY

[12] = target: T4, RNA-binding protein pos-1 (Caenorhabditis elegans, UniProt G5EF15); assay: inhibitors of POS-1/mex-3 RNA binding, dose response, biochemical, fluorescence polarization (AID 1964);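 also: purified POS-1 fused to maltose binding protein made in E. coli; potency of compounds blocking POS-1 binding to fluorescent RNA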
T4 sequence (G5EF15 whole entry): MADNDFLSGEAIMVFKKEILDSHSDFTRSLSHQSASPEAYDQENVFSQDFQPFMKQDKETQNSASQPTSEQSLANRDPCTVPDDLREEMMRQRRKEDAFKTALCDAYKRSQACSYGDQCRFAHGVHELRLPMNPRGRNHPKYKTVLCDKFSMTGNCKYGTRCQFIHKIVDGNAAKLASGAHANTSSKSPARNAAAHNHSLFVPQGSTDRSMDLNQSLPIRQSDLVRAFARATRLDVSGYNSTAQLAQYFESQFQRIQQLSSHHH

[13] = target: T5, Heat shock factor protein 1 (Mus musculus, UniProt P38532); assay: inhibition of MG132-induced HSE-luciferase signal, confirmation, cell-based, NIH3T3, luminescence, dose retest (AID 2382); type: functional;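 also: NIH3T3 fibroblasts with HSF1-driven luciferase reporter stressed by proteasome inhibitor MG132; luminescence from HSF1-driven luciferase expression after 8 hours of MG132 stress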
T5 sequence (P38532 whole entry): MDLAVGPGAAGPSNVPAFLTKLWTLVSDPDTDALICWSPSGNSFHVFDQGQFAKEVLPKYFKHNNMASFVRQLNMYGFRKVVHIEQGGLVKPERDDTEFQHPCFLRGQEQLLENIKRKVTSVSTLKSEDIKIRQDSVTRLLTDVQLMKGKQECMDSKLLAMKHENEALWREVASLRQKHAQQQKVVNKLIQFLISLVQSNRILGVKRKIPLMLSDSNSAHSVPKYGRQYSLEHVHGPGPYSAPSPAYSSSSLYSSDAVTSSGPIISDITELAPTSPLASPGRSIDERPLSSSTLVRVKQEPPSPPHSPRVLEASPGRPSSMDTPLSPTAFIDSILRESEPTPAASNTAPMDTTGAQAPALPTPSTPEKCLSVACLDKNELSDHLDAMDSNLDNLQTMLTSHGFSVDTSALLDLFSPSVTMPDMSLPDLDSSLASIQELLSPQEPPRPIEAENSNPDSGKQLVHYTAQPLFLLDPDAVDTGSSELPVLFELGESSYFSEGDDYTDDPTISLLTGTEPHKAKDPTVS

[14] = target: T6, Estrogen receptor (Homo sapiens, UniProt P03372);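 also: potency for inhibiting coactivator peptide recruitment to the receptor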
T6 sequence (P03372 whole entry): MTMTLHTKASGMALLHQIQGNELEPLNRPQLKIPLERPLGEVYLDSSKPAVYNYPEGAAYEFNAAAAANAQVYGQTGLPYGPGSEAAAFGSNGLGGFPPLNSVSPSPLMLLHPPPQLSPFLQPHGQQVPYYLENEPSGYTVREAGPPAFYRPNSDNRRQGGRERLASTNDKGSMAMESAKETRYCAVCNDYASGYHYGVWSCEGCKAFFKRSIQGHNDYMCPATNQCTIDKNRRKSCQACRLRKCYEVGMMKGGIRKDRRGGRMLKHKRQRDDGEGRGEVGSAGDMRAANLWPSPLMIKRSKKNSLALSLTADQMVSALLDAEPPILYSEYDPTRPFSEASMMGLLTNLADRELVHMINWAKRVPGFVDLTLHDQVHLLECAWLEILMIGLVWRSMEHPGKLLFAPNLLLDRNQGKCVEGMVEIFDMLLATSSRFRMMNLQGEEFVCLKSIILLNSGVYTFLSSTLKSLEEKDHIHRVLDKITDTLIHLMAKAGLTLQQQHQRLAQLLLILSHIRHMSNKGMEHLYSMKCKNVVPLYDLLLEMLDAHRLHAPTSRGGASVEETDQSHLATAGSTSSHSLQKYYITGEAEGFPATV

[15] = target: T7, Microphthalmia-associated transcription factor (Homo sapiens, UniProt O75030); assay: TRPM1 promoter luciferase signal decrease, dose response, MITF inhibitor project, cell-based, SK-MEL-5, cherry-picked, set 3 (AID 493073); type: functional
T7 sequence (O75030 whole entry): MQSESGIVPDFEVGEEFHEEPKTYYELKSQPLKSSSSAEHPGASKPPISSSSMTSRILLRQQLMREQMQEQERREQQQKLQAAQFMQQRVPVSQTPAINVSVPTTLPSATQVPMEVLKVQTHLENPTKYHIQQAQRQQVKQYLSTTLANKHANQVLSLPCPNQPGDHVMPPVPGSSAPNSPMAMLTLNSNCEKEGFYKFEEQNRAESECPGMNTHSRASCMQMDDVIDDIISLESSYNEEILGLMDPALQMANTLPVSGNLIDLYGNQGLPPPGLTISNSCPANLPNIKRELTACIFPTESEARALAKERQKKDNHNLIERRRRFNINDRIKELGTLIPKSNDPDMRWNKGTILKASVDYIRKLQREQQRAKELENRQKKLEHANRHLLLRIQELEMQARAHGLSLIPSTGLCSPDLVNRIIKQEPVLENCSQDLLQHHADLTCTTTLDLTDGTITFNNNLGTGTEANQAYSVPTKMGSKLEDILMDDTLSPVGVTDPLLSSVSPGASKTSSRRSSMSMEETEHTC

[16] = THP-1 cell cytotoxicity, dose response, cytotoxicity control for non-replicating M. tuberculosis project (AID 489025); type: functional
[17] = cells; type: functional
[18] = tested on: INS1; assay: beta cell apoptosis inhibitors, cytokine rescue, dose response, luminescence, retest (AID 449756); type: functional, cell-based; conditions: Rattus norvegicus;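 also: cell death triggered by IL-1 beta plus TNF-alpha plus IFN-gamma mixture; protective hits raise ATP signal compared with cytokine alone wells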
[19] = target: Nonstructural protein 1 (Influenza A virus, UniProt Q194T2); type: functional, Influenza A virus (A/California/07/2009(H1N1))
Chain of Nonstructural protein 1 (Q194T2 whole entry): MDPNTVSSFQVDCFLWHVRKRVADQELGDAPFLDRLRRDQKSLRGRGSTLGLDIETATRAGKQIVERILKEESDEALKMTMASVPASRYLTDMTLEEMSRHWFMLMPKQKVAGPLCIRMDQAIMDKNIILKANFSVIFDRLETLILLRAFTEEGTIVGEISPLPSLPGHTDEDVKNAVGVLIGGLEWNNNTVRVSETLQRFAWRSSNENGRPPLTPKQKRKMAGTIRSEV

[20] = Vero E6 cell cytotoxicity, dose response, cytotoxicity control for non-replicating M. tuberculosis project, secondary assay (AID 492998); type: functional, VeroE6; conditions: Vero C1008
[21] = target: SUMO-activating enzyme (Homo sapiens, UniProt Q9UBT2); assay: SUMOylation inhibitor hit validation, confirmation, SUMOylation inhibitor project, biochemical, AlphaScreen (AID 2018); type: functional
Chain of SUMO-activating enzyme (Q9UBE0 whole entry): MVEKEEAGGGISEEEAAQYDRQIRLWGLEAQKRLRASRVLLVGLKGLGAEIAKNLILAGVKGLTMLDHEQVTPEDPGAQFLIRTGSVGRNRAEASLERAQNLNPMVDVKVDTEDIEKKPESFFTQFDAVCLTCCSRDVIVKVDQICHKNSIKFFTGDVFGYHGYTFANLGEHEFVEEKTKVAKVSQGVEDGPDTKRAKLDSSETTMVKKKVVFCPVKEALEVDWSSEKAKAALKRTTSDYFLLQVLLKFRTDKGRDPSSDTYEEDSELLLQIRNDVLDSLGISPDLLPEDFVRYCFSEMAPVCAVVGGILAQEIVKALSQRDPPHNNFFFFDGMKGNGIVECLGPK
Chain of SUMO-activating enzyme (Q9UBT2 whole entry): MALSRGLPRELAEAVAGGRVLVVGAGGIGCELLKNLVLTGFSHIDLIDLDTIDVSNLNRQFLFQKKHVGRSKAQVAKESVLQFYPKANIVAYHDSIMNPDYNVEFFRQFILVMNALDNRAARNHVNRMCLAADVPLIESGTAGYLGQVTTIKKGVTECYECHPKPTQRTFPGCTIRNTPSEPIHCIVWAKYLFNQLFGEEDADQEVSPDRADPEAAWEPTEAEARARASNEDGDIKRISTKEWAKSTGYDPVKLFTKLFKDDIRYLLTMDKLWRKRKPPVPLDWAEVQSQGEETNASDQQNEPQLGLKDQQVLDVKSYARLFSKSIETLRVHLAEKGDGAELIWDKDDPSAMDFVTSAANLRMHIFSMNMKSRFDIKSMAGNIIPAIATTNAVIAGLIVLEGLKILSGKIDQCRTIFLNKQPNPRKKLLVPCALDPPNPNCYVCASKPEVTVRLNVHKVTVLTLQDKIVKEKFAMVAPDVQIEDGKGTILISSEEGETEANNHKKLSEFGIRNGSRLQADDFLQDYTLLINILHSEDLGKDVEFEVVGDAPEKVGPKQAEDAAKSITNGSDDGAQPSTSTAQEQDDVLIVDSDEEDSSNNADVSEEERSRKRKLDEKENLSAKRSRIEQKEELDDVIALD

[22] = target: Voltage-dependent T-type calcium channel subunit alpha-1H (Homo sapiens, UniProt O95180); type: functional;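 also: channel activity triggered by adding a high calcium stimulation buffer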
Chain of Voltage-dependent T-type calcium channel subunit alpha-1H (O95180 whole entry): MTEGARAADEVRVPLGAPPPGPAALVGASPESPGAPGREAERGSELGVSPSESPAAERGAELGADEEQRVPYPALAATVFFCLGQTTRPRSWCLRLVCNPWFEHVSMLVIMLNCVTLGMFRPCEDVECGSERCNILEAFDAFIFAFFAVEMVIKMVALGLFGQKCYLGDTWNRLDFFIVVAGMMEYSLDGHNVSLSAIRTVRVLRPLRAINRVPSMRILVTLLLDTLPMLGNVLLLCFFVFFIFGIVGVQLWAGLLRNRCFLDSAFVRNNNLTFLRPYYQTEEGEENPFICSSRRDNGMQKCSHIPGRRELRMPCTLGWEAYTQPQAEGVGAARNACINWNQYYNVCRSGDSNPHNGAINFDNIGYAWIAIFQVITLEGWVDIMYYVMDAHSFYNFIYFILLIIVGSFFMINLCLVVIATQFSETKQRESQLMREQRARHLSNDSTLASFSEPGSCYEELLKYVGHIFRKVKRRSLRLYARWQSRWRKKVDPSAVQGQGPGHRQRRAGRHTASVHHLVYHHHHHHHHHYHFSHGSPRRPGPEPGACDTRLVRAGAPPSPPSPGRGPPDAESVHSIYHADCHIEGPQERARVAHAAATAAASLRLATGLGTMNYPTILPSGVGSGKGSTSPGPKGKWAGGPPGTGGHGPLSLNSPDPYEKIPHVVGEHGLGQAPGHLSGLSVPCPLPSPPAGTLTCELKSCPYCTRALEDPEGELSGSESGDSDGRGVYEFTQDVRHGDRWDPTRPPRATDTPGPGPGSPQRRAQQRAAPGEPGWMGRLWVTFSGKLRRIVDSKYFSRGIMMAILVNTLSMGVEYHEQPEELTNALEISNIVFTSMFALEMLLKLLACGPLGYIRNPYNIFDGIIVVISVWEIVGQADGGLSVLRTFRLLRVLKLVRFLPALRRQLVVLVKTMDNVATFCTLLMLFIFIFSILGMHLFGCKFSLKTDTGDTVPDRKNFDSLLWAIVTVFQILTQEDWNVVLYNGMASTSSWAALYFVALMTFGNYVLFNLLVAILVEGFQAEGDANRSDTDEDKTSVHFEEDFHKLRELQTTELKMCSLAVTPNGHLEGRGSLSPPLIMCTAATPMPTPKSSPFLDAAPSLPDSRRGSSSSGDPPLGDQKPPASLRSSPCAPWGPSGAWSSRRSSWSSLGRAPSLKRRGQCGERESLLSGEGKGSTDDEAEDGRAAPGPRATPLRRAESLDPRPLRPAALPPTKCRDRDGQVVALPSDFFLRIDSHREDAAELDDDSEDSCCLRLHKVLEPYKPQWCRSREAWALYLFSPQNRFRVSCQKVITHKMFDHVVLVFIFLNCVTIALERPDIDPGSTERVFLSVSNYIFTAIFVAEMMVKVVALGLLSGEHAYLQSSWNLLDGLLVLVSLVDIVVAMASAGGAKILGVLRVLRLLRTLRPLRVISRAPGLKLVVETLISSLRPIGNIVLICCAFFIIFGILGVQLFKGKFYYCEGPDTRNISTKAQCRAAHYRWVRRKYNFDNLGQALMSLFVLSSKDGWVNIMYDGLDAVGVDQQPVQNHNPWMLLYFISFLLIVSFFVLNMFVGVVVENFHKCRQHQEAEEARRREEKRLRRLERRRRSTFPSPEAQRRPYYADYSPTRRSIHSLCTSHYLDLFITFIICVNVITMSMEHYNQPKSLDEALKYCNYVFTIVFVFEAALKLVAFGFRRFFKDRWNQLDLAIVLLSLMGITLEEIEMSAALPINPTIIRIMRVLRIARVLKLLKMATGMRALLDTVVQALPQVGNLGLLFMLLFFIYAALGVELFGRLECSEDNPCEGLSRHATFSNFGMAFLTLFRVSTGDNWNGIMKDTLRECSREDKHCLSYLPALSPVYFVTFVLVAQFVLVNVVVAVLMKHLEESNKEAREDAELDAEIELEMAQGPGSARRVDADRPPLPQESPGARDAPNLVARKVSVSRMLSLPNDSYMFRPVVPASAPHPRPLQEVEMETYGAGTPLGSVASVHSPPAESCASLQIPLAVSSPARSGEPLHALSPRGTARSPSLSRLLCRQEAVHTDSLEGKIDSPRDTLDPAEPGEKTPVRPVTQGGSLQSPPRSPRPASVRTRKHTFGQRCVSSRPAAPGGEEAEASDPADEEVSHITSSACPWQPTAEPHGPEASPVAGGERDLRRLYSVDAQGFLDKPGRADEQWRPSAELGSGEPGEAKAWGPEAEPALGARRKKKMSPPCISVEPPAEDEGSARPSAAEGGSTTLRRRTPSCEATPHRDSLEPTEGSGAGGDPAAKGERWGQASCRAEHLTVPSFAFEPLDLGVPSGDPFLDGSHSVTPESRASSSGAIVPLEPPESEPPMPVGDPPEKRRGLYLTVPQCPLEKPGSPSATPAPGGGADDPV

CN(CC(=O)NCCN1CCOCC1)S(=O)(=O)c1ccc(Cl)cc1
AC50 [1]: 23.2 µM (active)

Cc1cc(C(=O)N2CC=C(c3ccccc3)CC2)c2ccccc2n1
EC50 [2]: 86.7 µM (active)
EC50 [3]: 1.32 µM (active)
IC50 [4]: > 80 µM (inactive)
EC50 [5]: 0.653 µM (active)

COc1ccc2c(=O)c(-c3ccccc3)coc2c1
AC50 [6]: 39.8 µM (inconclusive)

Cc1ccc(N)c(N)c1
AC50 [6]: 25.1 µM (inconclusive)

COC(=O)c1cccc(C23CC4(C2)[C@H](CN(Cc2ccc(-c5ccccc5)cc2)[C@@H]4c2ccccc2)C3c2ccccc2)c1 (stereo not given in full)
AC50 [6]: 15.8 µM (inconclusive)

O=C(CCCN1C(=O)/C(=C/c2ccccc2Cl)SC1=S)Nc1ccccn1
IC50 [7]: > 80 µM (inactive)

CCc1ccc(/C=C2\SC(=S)N(CCC(=O)Nc3cc(C)on3)C2=O)cc1
IC50 [7]: > 80 µM (inactive)

O=C(Oc1ccc2ccc(=O)oc2c1)c1cccs1
IC50 [8]: 7.8 µM (active)

NC1=C(c2nc3ccccc3[nH]2)C(=O)CN1c1ccc(CC(=O)O)cc1
IC50 [9]: < 0.023 µM (not active)
IC50 [10]: 25.9 µM (active)
EC50 [11]: 1.59 µM (active)
EC50 [12]: 5.25 µM (inconclusive)
EC50 [13]: > 195 µM (not active)

CC1CCCN(C(=O)C2CCCN(S(=O)(=O)c3cccc4nsnc34)C2)C1 (stereo not given)
IC50 [8]: > 50 µM (inactive)

COc1ccc(Br)cc1CNC(=O)C1CCCN(c2nc3ccccc3o2)C1 (stereo not given)
IC50 [14]: > 50 µM (not active)

Cc1ccc2c(c1)COc1c3ccc(C(=O)O)cc3nn1-2
AC50 [15]: 2.23 µM (active)
IC50 [4]: > 80 µM (inactive)

O=C(c1cccc(F)c1)N1CCN(C(=O)c2cc3ncc(Br)cn3n2)CC1
IC50 [9]: 1.16 µM (not active)
IC50 [10]: 11.5 µM (active)
IC50 [14]: 33.4 µM (not active)

O=C(Nc1ccc(Br)cc1)C1CC(O)CN1C(=O)Oc1ccccc1 (stereo not given)
AC50 [1]: 42.7 µM (active)

CC1(C)Oc2ccc(C(=O)NC3CCCC3)cc2N(CC(=O)NC2CCCC2)C1=O
IC50 [8]: > 50 µM (inactive)

CC(=O)N1CC=CC1(CC(C)C)C(=O)NCC1CC1 (stereo not given)
AC50 [6]: 31.6 µM (inconclusive)

O=C(Nc1nc(-c2ccccn2)cs1)c1ccc([N+](=O)[O-])o1
AC50 [15]: 10.8 µM (active)
CC50 [16]: 9.27 µM (active)
IC50 [17]: 4.38 µM (active)
AC50 [18]: 2.11 µM (active)
IC50 [19]: 11.7 µM (active)
CC50 [20]: 4.61 µM (active)

COCCNC(=O)CSCc1nc(-c2ccc(SC)cc2)oc1C
IC50 [7]: > 80 µM (inactive)

CCOCC(=O)Nc1ccc(S(=O)(=O)Nc2ncccn2)cc1
IC50 [8]: > 50 µM (inactive)

CCN1CCc2nc(NC(=O)Cc3ccc4c(c3)OCCO4)sc2C1
IC50 [14]: 28.8 µM (active)

O=C(Nc1ccsc1C(=O)NC1CCCCC1)c1ccccc1
AC50 [1]: 26 µM (active)

Cc1ccc(NC(=O)Cn2c(=O)oc3cc(S(=O)(=O)N4CCC(C)CC4)ccc32)cc1C
AC50 [18]: 8.95 µM (active)
IC50 [21]: 24.4 µM (active)
EC50 [22]: 5.17 µM (active)

Cc1noc(C)c1COc1ccc(CC(=O)NCc2ccccc2)cc1
IC50 [4]: > 80 µM (inactive)
